Legend:
[1] = Ratio of inhibitory activities against human tryptase to that of human urokinase plasminogen activator (microPa)
Tryptase = Tryptase (Homo sapiens, UniProt Q9BZJ3+Q15661+Q9NRR2); assay: Inhibitory concentration against human tryptase
[2] = Ratio of inhibitory activities against human tryptase to that of human tissue plasminogen activator (tissue plasminogen activator)
[3] = Ratio of inhibitory activities against human tryptase to that of human thrombin
[4] = Ratio of inhibitory activities against human tryptase to that of human plasmin
[5] = Ratio of inhibitory activities against human tryptase to that of human trypsin
[6] = Aqueous stability was evaluated as half life at 37 degree C at pH 7; type: physicochemical; settings: aqueous solution
[7] = Aqueous stability was evaluated as half life at 37 degree C at pH 9; type: physicochemical; settings: aqueous solution

Ratio [1] | IC50 (Tryptase) [nM] | Ratio [2] | Ratio [3] | Ratio [4] | Ratio [5] | half-life [6] [h] | half-life [7] [h] | Structure (SMILES)
12100 | 1.9 | > 17400 | > 17400 | 8420 | 1680 |  |  | N=C(N)N1CCCC(C[C@H]2C(=O)N(C(=O)N3CCN(C(=O)CCCCCC4CCCCC4)CC3)[C@@H]2C(=O)O)C1 (stereo partly specified)
> 17500 | < 1.7 | > 19400 | > 19400 | > 16300 | > 1940 | > 48 | > 17.5 | N=C(N)N1CCCC(C[C@H]2C(=O)N(C(=O)N3CCN(C(=O)CCCCCc4ccccc4)CC3)[C@@H]2C(=O)O)C1 (stereo partly specified)
> 5500 | 6 | > 5500 | > 5500 | 3620 | 2170 | > 48 | 23.9 | CN(CCCCc1ccccc1)C(=O)N1CCN(C(=O)N2C(=O)[C@H](CC3CCCN(C(=N)N)C3)[C@H]2C(=O)O)CC1 (stereo partly specified)
135 |  | > 8250 | 2620 | 430 | 18 | > 48 |  | CC(C)(C)NC(=O)N1CCN(C(=O)N2C(=O)[C@H](CCCN=C(N)N)[C@H]2C(=O)O)CC1
5000 | 4.6 | > 7150 | > 7150 | > 7150 | 739 |  |  | N=C(N)N1CCCC(C[C@H]2C(=O)N(C(=O)N3CCN(C(=O)CCCCCc4ccccn4)CC3)[C@@H]2C(=O)O)C1 (stereo partly specified)
> 226 | < 1.7 | > 16500 | > 16500 | > 26 | > 8 |  |  | N=C(N)NCCC[C@H]1C(=O)N(C(=O)N2CCN(C(=O)CCCCCc3ccccc3)CC2)[C@@H]1C(=O)O
843 | 4 | 9170 | > 9170 | 364 | 5 | > 48 | 7.3 | CC(C)C(OC(=O)N1CCN(C(=O)N2C(=O)[C@H](CCCN=C(N)N)[C@H]2C(=O)O)CC1)C(C)C
> 19400 | < 1.7 | > 19400 | > 19400 | > 19400 | > 3280 | > 48 | > 17.5 | N=C(N)N1CCC[C@@H](C[C@H]2C(=O)N(C(=O)N3CCN(C(=O)CCCCCc4ccccc4)CC3)[C@@H]2C(=O)O)C1
> 11800 | < 1.7 | > 19400 | > 19400 | > 12900 | > 3390 | > 48 | > 17.5 | N=C(N)N1CCC[C@H](C[C@H]2C(=O)N(C(=O)N3CCN(C(=O)CCCCCc4ccccc4)CC3)[C@@H]2C(=O)O)C1

Structure (SMILES) | Ratio [1] | IC50 (Tryptase) [nM] | Ratio [2] | Ratio [3] | Ratio [4] | Ratio [5] | half-life [6] [h] | half-life [7] [h]
CC(C)C(OC(=O)N1CCN(C(=O)N2C(=O)[C@H](CC3CCCN(C(=N)N)C3)[C@H]2C(=O)O)CC1)C(C)C (stereo in doubt; form 2) [listing 1 of 2 here] | > 465 |  | > 465 | > 465 | > 465 | 364 |  | 
CC(C)C(OC(=O)N1CCN(C(=O)N2C(=O)[C@H](CC3CCCN(C(=N)N)C3)[C@H]2C(=O)O)CC1)C(C)C (stereo in doubt; form 1) [listing 1 of 2 here] |  | 71 |  |  |  |  | > 48 | > 48
CC(C)C(OC(=O)N1CCN(C(=O)N2C(=O)[C@H](CC3CCCN(C(=N)N)C3)[C@H]2C(=O)O)CC1)C(C)C (single isomer, unassigned) [listing 1 of 2 here] |  | 204 |  |  |  |  |  | 
CC(C)C(OC(=O)N1CCN(C(=O)N2C(=O)[C@H](CC3CN(C(=N)N)C3)[C@H]2C(=O)O)CC1)C(C)C | 862 | 12 | 2840 | > 2840 | 394 | 7 | > 48 | 14.4
N=C(N)N1CCCC(C[C@H]2C(=O)N(C(=O)N3CCN(C(=O)OCCCOc4ccccc4)CC3)[C@@H]2C(=O)O)C1 (stereo partly specified) | > 19400 | < 1.7 | > 19400 | > 19400 | > 92500 | > 1680 |  | 
CC(C)C(OC(=O)N1CCN(C(=O)N2C(=O)[C@H](CC3CCCN(C(=N)N)C3)[C@H]2C(=O)O)CC1)C(C)C (stereo in doubt; form 1) [listing 2 of 2 here] | > 465 |  | > 465 | > 465 | > 465 | 258 |  | 
CC(C)C(OC(=O)N1CCN(C(=O)N2C(=O)[C@H](CC3CCCN(C(=N)N)C3)[C@H]2C(=O)O)CC1)C(C)C (stereo in doubt; form 2) [listing 2 of 2 here] |  | 63 |  |  |  |  |  | 
N=C(N)N1CCCC(C[C@H]2C(=O)N(C(=O)N3CCN(C(=O)NCCCCc4ccccc4)CC3)[C@@H]2C(=O)O)C1 (stereo partly specified) | > 8780 | < 1.7 | > 19400 | > 19400 | > 16100 | > 1360 | > 48 | 12
CC(C)C(OC(=O)N1CCN(C(=O)N2C(=O)[C@H](CC3CCCN(C(=N)N)C3)[C@H]2C(=O)O)CC1)C(C)C (single isomer, unassigned) [listing 2 of 2 here] | > 162 |  | > 162 | > 162 | > 162 | > 162 |  | 
